# Experimental data published in patent publication US7618697B2, “Carboxylic acid esters of zosteric acid for prevention of biofouling” (Ciba Specialty Chemicals Corporation, priority 2005, dated 2009).
# Tested on: Staphyloccus aureus
# Experiment: Microbial antiadhesion assay on coated PMMA test pins
# Type: cell-based
# Conditions: adhering microbes as percent of control pins (acrylate film former only = 100%), test concentration 0.50% in Glascol LS26 acrylate film former, 60 min in S. aureus suspension, immunological detection
# Protocol: Microbial Antiadhesion Assay
# According to the method of Nature Medicine Vol. 6, No. 8, 1053-1056, Zosterate esters are dissolved in a solution containing an acrylate polymeric film former (Glascol LS26, 4.6% active). Test pins made of PMMA are dipped into the solutions, incubated for 20 minutes and allowed to dry. The test pins are incubated in a suspension of Staphyloccus aureus for 60 min, then rinsed with PBS buffer. The microbial cells adhering to the pin are detected in an immunological assay using specific antibodies against the test strain which are then detected […]. The results are reported as a percent relative to the control pins (treated with acrylate film former only), a value of 100% represents the value observed on the control pins; a value of 42% represents a 0.42× the amount of microbes found on the pins treated with acrylate film former only.
row,SMILES,Results on PMMA Based on Control [%]
1,CCCCOC(=O)/C=C/c1ccc(OS(=O)(=O)O)cc1 [1-Butyl zosterate],70
2,CCC(C)OC(=O)/C=C/c1ccc(OS(=O)(=O)O)cc1 (stereo not drawn) [2-Butyl zosterate],42
3,"COC(=O)/C=C/c1ccc(OS(=O)(=O)O)cc1 [Methyl zosterate, Methyl Zosterate]",28
